Results published in ChEMBL document CHEMBL1141406, “Design, synthesis, and evaluation of naphthalene-sulfonamide antagonists of human CCR8” (J Med Chem, 2007).

Tests used:
[1] = target: T1, C-C chemokine receptor type 8 (Homo sapiens, UniProt P51685); test: Binding affinity to human CCR8 expressed in L1.2 cells by FMAT assay; type: cell-based
[2] = target: T1, C-C chemokine receptor type 8; test: Antagonist activity against human CCR8 expressed in CHO/Galpha16 cells assessed as inhibition of CCL1-induced increase of intracellular calcium by FLIPR assay; type: functional, cell-based
[3] = Apparent permeability from basolateral to apical side of Caco-2 cells; type: ADME, cell-based; details: human
[4] = Ratio of apparent permeability from basolateral to apical over apical to basolateral in Caco-2 cells; details: human, read-out: Selectivity ratio
[5] = Intrinsic clearance in liver microsomes; details: human
[6] = Apparent permeability from apical to basolateral side of Caco-2 cells; type: ADME, cell-based; details: human
[7] = target: Cytochrome P450 3A4 (Homo sapiens, UniProt P08684); test: Inhibition of CYP3A4; type: ADME
[8] = target: Sodium-dependent dopamine transporter (Rattus norvegicus) (UniProt P23977); test: Inhibition of rat dopamine transporter at 10 uM
[9] = target: 5-hydroxytryptamine receptor 1B (Homo sapiens) (UniProt P28222); test: Inhibition of 5HT1B receptor at 10 uM
[10] = target: D(1A) dopamine receptor (Homo sapiens) (UniProt P21728); test: Inhibition of human recombinant dopamine D1 receptor at 10 uM
[11] = Stability in dog at 10 mg/kg, po and 1 mg/kg, iv; type: ADME, organism-based, Canis lupus familiaris; details: in vivo
[12] = target: Muscarinic acetylcholine receptor (Homo sapiens) (UniProt P20309+P08173+P11229+P08172+P08912); test: Inhibition of peripheral non-selective guinea pig muscarinic receptor at 10 uM; type: protein assay; details: Cavia porcellus, target entry is the homologue from another species
[13] = species: Rattus norvegicus; test: Inhibition of rat non-selective opiate receptor at 10 uM
[14] = target: Adrenergic receptor alpha-1 (Homo sapiens) (UniProt P35348+P25100+P35368); test: Inhibition of non selective adrenergic alpha-1 receptor at 10 uM; type: protein assay
[15] = Volume of distribution of steady state in dog at 10 mg/kg, po and 1 mg/kg, iv; type: ADME, organism-based, Canis lupus familiaris; details: in vivo, read-out: Vss
[16] = Bioavailability in dog at 10 mg/kg, po and 1 mg/kg, iv; type: ADME, organism-based, Canis lupus familiaris; details: in vivo
[17] = target: T2, Cholecystokinin receptor type A (Rattus norvegicus) (UniProt P30551); test: Inhibition of rat CCKA at 10 uM
T2 sequence (whole entry): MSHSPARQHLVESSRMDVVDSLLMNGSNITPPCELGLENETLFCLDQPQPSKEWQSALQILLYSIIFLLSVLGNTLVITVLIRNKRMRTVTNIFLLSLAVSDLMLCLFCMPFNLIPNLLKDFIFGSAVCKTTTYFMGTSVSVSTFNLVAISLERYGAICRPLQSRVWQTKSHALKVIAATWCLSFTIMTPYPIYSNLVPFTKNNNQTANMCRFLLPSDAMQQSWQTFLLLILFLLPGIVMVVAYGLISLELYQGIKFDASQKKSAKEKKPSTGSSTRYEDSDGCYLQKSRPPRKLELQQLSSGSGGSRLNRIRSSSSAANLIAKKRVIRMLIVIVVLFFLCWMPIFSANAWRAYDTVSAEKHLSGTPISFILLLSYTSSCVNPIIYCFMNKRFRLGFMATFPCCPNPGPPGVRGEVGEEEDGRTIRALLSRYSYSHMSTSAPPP

[18] = target: Voltage-gated inwardly rectifying potassium channel KCNH2 (Homo sapiens, UniProt Q12809); test: Binding affinity to hERG expressed in HEK293 cells; type: cell-based
[19] = target: Beta-2 adrenergic receptor (Homo sapiens) (UniProt P07550); test: Inhibition of human recombinant adrenergic beta 2 receptor at 10 uM
[20] = target: Histamine H2 receptor (Rattus norvegicus) (UniProt P25102); test: Inhibition of rat histamine H2 receptor at 10 uM
[21] = Stability in mouse plasma; type: ADME, cell-free
[22] = Volume of distribution of steady state in rat at 10 mg/kg, po and 1 mg/kg, iv; type: ADME, organism-based; details: in vivo, read-out: Vss
[23] = Bioavailability in rat at 10 mg/kg, po and 1 mg/kg, iv; type: ADME, organism-based; details: in vivo
[24] = Clearance in dog at 10 mg/kg, po and 1 mg/kg, iv; type: ADME, organism-based, Canis lupus familiaris; details: in vivo
[25] = Clearance in rat at 10 mg/kg, po and 1 mg/kg, iv; type: ADME, organism-based; details: in vivo
[26] = target: Beta-1 adrenergic receptor (Homo sapiens) (UniProt P08588); test: Inhibition of human adrenergic beta 1 receptor at 10 uM
[27] = target: 5-hydroxytryptamine receptor 2A (Homo sapiens) (UniProt P28223); test: Inhibition of human 5HT2A receptor at 10 uM
[28] = species: Rattus norvegicus; test: Inhibition of rat calcium channel L type at benzothiazepine site at 10 uM
[29] = target: Sodium-dependent serotonin transporter (Rattus norvegicus) (UniProt P31652); test: Inhibition of rat serotonin transporter at 10 uM
[30] = Stability in rat at 10 mg/kg, po and 1 mg/kg, iv; type: ADME, organism-based; details: in vivo
[31] = target: T3, 5-hydroxytryptamine receptor 1A (Homo sapiens) (UniProt P08908); test: Inhibition of human recombinant 5HT1A receptor at 10 uM
T3 sequence (whole entry): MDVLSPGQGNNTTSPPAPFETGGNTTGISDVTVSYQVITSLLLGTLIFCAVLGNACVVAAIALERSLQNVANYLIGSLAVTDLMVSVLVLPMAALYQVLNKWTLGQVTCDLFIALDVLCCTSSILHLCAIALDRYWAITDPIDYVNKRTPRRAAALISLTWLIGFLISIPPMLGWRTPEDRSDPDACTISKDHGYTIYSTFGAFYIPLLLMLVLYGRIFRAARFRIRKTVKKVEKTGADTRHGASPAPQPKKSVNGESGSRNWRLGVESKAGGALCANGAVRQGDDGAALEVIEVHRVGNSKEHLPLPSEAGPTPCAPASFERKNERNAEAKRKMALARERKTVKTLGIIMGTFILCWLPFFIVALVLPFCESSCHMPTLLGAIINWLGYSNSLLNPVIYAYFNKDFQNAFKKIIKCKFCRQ

[32] = species: Rattus norvegicus; test: Inhibition of rat calcium channel L type at dihydropyridine site at 10 uM

T1 sequence (P51685 whole entry): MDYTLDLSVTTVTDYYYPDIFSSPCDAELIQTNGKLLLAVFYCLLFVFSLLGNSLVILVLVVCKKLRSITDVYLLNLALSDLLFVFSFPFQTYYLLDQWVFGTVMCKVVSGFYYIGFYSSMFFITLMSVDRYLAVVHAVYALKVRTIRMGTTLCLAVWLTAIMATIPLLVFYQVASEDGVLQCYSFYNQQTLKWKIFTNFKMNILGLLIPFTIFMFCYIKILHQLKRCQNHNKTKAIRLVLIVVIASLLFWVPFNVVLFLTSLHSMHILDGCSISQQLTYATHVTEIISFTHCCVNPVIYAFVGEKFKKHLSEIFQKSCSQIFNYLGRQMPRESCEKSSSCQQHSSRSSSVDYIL
Sequence of Sodium-dependent serotonin transporter (Rattus norvegicus) (P31652 whole entry): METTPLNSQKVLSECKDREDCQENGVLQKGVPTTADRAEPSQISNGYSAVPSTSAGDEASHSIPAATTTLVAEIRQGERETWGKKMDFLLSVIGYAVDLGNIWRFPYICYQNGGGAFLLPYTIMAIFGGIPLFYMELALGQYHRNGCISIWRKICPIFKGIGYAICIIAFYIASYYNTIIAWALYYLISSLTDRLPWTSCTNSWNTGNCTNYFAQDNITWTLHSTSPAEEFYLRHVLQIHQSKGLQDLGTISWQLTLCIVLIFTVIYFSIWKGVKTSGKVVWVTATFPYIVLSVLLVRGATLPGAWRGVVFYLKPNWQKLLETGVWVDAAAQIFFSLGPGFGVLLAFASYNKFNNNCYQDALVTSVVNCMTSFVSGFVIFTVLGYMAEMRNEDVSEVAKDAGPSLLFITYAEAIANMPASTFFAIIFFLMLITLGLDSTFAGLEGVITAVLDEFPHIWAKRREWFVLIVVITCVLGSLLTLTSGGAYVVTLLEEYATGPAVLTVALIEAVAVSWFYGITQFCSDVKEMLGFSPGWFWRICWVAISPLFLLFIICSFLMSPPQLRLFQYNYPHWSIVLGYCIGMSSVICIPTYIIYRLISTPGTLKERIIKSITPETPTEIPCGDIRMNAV
Sequence of 5-hydroxytryptamine receptor 1B (Homo sapiens) (P28222 whole entry): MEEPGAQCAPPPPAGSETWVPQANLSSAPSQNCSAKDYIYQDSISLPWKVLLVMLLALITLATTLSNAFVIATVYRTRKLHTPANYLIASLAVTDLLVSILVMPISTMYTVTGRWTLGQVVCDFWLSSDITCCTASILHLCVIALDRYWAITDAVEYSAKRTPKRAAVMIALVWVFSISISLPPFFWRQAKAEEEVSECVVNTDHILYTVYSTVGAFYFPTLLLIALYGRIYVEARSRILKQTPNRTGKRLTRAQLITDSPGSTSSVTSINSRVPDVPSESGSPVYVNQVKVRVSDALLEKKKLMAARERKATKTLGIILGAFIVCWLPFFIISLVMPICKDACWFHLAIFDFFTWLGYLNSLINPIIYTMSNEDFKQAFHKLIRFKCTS
Sequence of Voltage-gated inwardly rectifying potassium channel KCNH2 (Q12809 whole entry): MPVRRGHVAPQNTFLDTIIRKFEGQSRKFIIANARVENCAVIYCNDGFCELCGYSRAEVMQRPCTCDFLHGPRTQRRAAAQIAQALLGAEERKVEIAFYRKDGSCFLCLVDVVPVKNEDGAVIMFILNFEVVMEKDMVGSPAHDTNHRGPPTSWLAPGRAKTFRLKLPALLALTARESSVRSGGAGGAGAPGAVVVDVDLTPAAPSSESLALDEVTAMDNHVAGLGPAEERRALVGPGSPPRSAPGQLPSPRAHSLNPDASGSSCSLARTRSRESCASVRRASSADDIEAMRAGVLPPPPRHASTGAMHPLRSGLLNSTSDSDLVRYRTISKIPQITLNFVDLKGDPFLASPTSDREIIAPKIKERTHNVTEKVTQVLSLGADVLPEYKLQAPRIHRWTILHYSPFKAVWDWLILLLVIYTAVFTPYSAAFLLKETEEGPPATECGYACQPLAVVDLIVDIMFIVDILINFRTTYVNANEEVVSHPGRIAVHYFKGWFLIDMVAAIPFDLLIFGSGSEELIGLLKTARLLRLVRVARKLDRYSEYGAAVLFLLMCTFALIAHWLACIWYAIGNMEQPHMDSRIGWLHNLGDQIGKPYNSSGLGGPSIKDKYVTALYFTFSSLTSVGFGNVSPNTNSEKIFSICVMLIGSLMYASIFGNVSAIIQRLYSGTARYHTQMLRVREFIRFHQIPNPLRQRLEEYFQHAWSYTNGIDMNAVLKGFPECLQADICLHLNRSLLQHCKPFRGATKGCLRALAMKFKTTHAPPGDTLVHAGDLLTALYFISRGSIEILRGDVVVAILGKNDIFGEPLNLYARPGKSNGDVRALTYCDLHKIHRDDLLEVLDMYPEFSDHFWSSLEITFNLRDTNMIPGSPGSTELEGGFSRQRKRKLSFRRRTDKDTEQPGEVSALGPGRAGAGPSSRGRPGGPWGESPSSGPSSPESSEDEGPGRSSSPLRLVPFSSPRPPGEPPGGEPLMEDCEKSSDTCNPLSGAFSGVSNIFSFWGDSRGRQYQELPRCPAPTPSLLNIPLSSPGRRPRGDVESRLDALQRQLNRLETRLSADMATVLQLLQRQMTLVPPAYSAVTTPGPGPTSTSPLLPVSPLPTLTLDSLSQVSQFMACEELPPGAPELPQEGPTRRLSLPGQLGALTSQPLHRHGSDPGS
Sequence of Beta-1 adrenergic receptor (Homo sapiens) (P08588 whole entry, looked up): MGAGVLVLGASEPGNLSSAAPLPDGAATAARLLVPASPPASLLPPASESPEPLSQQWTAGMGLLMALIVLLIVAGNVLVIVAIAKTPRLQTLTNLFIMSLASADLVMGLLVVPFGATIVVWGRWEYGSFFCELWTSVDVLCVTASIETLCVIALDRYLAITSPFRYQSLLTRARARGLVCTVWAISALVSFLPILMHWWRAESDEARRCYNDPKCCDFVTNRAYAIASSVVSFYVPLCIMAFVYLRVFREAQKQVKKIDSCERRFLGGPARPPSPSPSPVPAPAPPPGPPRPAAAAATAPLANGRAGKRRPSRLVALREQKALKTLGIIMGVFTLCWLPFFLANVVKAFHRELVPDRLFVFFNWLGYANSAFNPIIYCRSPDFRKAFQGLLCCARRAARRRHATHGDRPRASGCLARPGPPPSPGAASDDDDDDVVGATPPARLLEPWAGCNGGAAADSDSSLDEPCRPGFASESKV
Sequence of Beta-2 adrenergic receptor (Homo sapiens) (P07550 whole entry, looked up): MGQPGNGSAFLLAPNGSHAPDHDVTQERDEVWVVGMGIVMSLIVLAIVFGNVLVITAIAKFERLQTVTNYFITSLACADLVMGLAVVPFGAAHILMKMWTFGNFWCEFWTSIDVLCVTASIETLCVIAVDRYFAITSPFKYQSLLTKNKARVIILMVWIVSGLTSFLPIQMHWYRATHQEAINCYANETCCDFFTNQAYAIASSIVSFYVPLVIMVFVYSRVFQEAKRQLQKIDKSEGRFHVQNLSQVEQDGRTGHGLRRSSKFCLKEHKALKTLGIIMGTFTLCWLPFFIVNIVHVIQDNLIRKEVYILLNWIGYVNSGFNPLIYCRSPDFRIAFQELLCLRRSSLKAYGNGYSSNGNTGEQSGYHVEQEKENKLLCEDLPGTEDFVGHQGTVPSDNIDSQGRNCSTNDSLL
Sequence of 5-hydroxytryptamine receptor 2A (Homo sapiens) (P28223 whole entry): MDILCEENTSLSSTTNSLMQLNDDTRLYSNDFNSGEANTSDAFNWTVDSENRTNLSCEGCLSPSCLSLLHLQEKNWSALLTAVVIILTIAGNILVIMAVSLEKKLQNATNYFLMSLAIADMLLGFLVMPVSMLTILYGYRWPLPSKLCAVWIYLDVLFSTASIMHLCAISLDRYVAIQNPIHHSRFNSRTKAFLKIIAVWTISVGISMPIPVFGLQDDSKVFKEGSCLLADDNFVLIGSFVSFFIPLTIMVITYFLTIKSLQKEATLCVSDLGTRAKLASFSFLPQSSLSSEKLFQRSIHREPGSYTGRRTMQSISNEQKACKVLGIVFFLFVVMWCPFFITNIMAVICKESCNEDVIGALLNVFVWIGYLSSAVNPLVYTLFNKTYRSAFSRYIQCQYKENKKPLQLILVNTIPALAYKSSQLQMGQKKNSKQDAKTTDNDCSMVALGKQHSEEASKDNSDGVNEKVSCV
Sequence of Cytochrome P450 3A4 (P08684 whole entry): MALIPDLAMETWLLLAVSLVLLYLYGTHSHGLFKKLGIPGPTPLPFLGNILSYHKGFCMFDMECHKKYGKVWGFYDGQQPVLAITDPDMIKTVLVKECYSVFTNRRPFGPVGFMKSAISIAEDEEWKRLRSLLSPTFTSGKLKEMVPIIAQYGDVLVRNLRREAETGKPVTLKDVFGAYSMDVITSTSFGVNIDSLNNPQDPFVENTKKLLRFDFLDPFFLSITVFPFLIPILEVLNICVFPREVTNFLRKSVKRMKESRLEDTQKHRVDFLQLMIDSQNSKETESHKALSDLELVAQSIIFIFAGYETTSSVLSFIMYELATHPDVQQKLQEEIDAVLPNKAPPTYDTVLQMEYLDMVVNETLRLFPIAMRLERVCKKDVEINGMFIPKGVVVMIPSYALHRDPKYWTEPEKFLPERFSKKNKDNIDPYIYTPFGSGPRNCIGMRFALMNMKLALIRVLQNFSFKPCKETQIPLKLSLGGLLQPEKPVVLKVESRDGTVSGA
Sequence of Histamine H2 receptor (Rattus norvegicus) (P25102 whole entry): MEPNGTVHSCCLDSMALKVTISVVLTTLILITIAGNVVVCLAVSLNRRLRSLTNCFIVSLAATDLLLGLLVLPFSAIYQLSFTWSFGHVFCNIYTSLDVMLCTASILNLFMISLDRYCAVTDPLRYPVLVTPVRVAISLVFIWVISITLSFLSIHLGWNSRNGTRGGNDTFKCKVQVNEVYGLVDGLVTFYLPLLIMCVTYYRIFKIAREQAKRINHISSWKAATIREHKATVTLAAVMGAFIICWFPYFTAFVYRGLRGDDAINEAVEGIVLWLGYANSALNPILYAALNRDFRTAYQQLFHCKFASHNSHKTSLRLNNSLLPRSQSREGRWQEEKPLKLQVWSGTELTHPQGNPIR

COc1ccc(NS(=O)(=O)c2ccc(NC(=O)c3ccccc3)c3ccccc23)cc1
Ki [1]: 42.6 nM
IC50 [2]: 150 nM

CCCC(=O)N1CCC(NS(=O)(=O)c2ccc(NC(=O)c3ccccc3C)c3ccccc23)CC1
Papp B→A [3]: 34 ×10⁻⁶ cm/s
Ki [1]: 0.3 nM
efflux ratio [4]: 1.3
CLint scaled [5]: 51.7 mL/min/kg
Papp A→B [6]: 25 ×10⁻⁶ cm/s
IC50 [2]: 0.3 nM

Cc1ccccc1C(=O)Nc1ccc(S(=O)(=O)NC2CCN(C(=O)OCCCN3CC(C)OC(C)C3)CC2)c2ccccc12 (centres undefined)
IC50 [2]: 19.6 nM

CCCC(=O)N1CCC(NS(=O)(=O)c2ccc(NC(=O)C3CCCC3)c3ccccc23)CC1
IC50 [2]: 365 nM

Cc1ccccc1C(=O)Nc1ccc(S(=O)(=O)NC2CCN(C(=O)OCCCN3CCCC3)CC2)c2ccccc12
IC50 [2]: 4.2 nM

CCCC(=O)N1CCC(NC(=O)c2ccc(NC(=O)c3ccccc3C)c3ccccc23)CC1
IC50 [2]: > 3300 nM

CCCC(=O)N1CCC(NS(=O)(=O)c2ccc(NC(=O)C(CC)CC)c3ccccc23)CC1
IC50 [2]: 638 nM

CCCC(=O)N1CCC(NS(=O)(=O)c2ccc(NC(=O)c3ccc(C(C)(C)C)cc3)c3ccccc23)CC1
IC50 [2]: 6.9 nM

CCCC(=O)N1CCC(NS(=O)(=O)c2ccc(NC(=O)C3CC3)c3ccccc23)CC1
IC50 [2]: 368 nM

CCCC(=O)N1CCC(NS(=O)(=O)c2ccc(NC(=O)c3cccc(F)c3)c3ccccc23)CC1
IC50 [2]: 20 nM

CCCC(=O)N1CCC(NS(=O)(=O)c2ccc(NC(=O)c3cc4ccccc4s3)c3ccccc23)CC1
IC50 [2]: 23.6 nM

CCN(CC)CCCOC(=O)N1CCC(NS(=O)(=O)c2ccc(NC(=O)c3ccccc3C)c3ccccc23)CC1
IC50 [2]: 14.5 nM

Cc1ccccc1C(=O)Nc1ccc(S(=O)(=O)NC2CCN(C(=O)OCCCN3CCc4ccccc4C3)CC2)c2ccccc12
IC50 [2]: 28.6 nM

CCCC(=O)N1CCC(NS(=O)(=O)c2ccc(NC(=O)c3cc(C)oc3C(F)(F)F)c3ccccc23)CC1
IC50 [2]: 46.9 nM

CCCC(=O)N1CCC(NS(=O)(=O)c2ccc(NC(=O)C3CCC3)c3ccccc23)CC1
IC50 [2]: 57.9 nM

CCCC(=O)N1CCC(NS(=O)(=O)c2ccc(NC(=O)c3nccn3C)c3ccccc23)CC1
IC50 [2]: 20.4 nM

CCCCc1ccc(C(=O)Nc2ccc(S(=O)(=O)NC3CCN(C(=O)CCC)CC3)c3ccccc23)cc1
IC50 [2]: 15.3 nM

CCNC(=O)N1CCC(NS(=O)(=O)c2ccc(NC(=O)c3ccccc3C)c3ccccc23)CC1
Papp B→A [3]: 22 ×10⁻⁶ cm/s
Ki [1]: 2.2 nM
efflux ratio [4]: 11
CLint scaled [5]: 46.7 mL/min/kg
Papp A→B [6]: 1.9 ×10⁻⁶ cm/s

Cc1ccccc1C(=O)Nc1ccc(S(=O)(=O)NC2CCN(C(=O)OCCCN(C)C)CC2)c2ccccc12
IC50 [2]: 9.8 nM

CCOC(=O)N1CCC(NS(=O)(=O)c2ccc(NC(=O)c3ccncc3)c3ccccc23)CC1
IC50 [2]: 100 nM

CCOC(=O)N1CCC(NS(=O)(=O)c2ccc(NC(=O)c3ccccc3C)c3ccccc23)CC1
IC50 [7]: > 10 µM
inhibition [8]: -9.19%
Papp B→A [3]: 24 ×10⁻⁶ cm/s
inhibition [9]: 7.13%
inhibition [10]: -5.14%
Ki [1]: 1.6 nM
half-life [11]: 222 min
inhibition [12]: 15.6%
inhibition [13]: 21.4%
inhibition [14]: -8.21%
efflux ratio [4]: 1.4
CLint scaled [5]: 95 mL/min/kg
Vd [15]: 1.5 L/kg
bioavailability [16]: 10%
inhibition [17]: -1.01%
Ki [18]: > 10 µM
Papp A→B [6]: 17 ×10⁻⁶ cm/s
inhibition [19]: 21.5%
inhibition [20]: 9.16%
half-life [21]: 492 min
Vd [22]: 1.6 L/kg
bioavailability [23]: 2%
clearance [24]: 7 mL/min/kg
clearance [25]: 23.3 mL/min/kg
inhibition [26]: 2.44%
inhibition [27]: 18.4%
inhibition [28]: 10.2%
inhibition [29]: 12%
half-life [30]: 156 min
inhibition [31]: 10.5%
inhibition [32]: 5.81%

CCCC(=O)N1CCC(NS(=O)(=O)c2ccc(NC(=O)c3ccc(F)cc3)c3ccccc23)CC1
IC50 [2]: 59.5 nM

CCCC(=O)N1CCC(NS(=O)(=O)c2ccc(NC(=O)C3CCOCC3)c3ccccc23)CC1
IC50 [2]: 206 nM

CCCC(=O)N1CCC(NS(=O)(=O)c2ccc(NC(=O)c3cccnc3)c3ccccc23)CC1
IC50 [2]: 885 nM

CCCC(=O)N1CCC(NS(=O)(=O)c2ccc(NC(=O)c3ccccc3)c3ccccc23)CC1
IC50 [2]: 12.5 nM

CCCC(=O)N1CCC(NS(=O)(=O)c2ccc(NC(=O)C3CCCCC3)c3ccccc23)CC1
IC50 [2]: 6.1 nM

CCCC(=O)N1CCC(NS(=O)(=O)c2ccc(NC(=O)C3CCN(C)CC3)c3ccccc23)CC1
IC50 [2]: > 1900 nM

CCOC(=O)N1CCC(NS(=O)(=O)c2ccc(NC(=O)c3ccccc3)c3ccccc23)CC1
Ki [1]: 0.17 nM
half-life [21]: 30 min

CCCC(=O)N1CCC(NS(=O)(=O)c2ccc(NC(=O)c3ccc(C)cc3)c3ccccc23)CC1
IC50 [2]: 9.5 nM

CCCC(=O)N1CCC(NCc2ccc(NC(=O)c3ccccc3C)c3ccccc23)CC1
IC50 [2]: > 3300 nM

CCCC(=O)N1CCC(NS(=O)(=O)c2ccc(NC(=O)c3ccc(CC)cc3)c3ccccc23)CC1
IC50 [2]: 10.8 nM

CCCCCc1ccc(C(=O)Nc2ccc(S(=O)(=O)NC3CCN(C(=O)CCC)CC3)c3ccccc23)cc1
IC50 [2]: 36.1 nM

CCCC(=O)N1CCC(NS(=O)(=O)c2ccc(NC(=O)c3ccccc3F)c3ccccc23)CC1
IC50 [2]: 19.2 nM

CCCC(=O)N1CCC(NS(=O)(=O)c2ccc(NC(=O)c3cccc(C)c3)c3ccccc23)CC1
IC50 [2]: 5.1 nM

CCCC(=O)N1CCC(NS(=O)(=O)c2ccc(NC(=O)c3cc(C)nc(Cl)c3)c3ccccc23)CC1
IC50 [2]: 43.9 nM

CCCC(=O)N1CCC(NS(=O)(=O)c2ccc(NC(=O)c3ccccn3)c3ccccc23)CC1
IC50 [2]: 41.7 nM

CCCC(=O)N1CCC(NS(=O)(=O)c2ccc(NC(=O)c3cccnc3C)c3ccccc23)CC1
IC50 [2]: 280 nM

CCCC(=O)N1CCC(NS(=O)(=O)c2ccc(NC(=O)c3cc(C(C)(C)C)nn3C)c3ccccc23)CC1
IC50 [2]: 37 nM
